Test system: 616215-338-R-J1-PDC complex spheroid viability
Assay: Anticancer human tumor 616215-338-R-J1-PDC patient-derived colon adenocarcinoma cell line growth inhibition [RAS]
Details: for IC50: curve of first compound; for viability, T/C: stronger effect = lower value
Outline: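 Tumour cells grown as complex spheroids with HUVEC endothelial cells and mesenchymal stem cells, treated with RAS pathway inhibitor combinations. Each agent spans half-log steps from near clinical Cmax, or 10 microM where Cmax is unknown.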

[1] = second compound 0.000949 µM, first compound 0.0316 µM
[2] = second compound 0.000949 µM, first compound 0.1 µM
[3] = second compound 0.000949 µM, first compound 0.316 µM
[4] = second compound 0.000949 µM, first compound 1 µM
[5] = second compound 0.000949 µM, first compound 3.16 µM
[6] = second compound 0.000949 µM, first compound 10 µM
[7] = second compound 0.003 µM, first compound 0.0316 µM
[8] = second compound 0.003 µM, first compound 0.1 µM
[9] = second compound 0.003 µM, first compound 0.316 µM
[10] = second compound 0.003 µM, first compound 1 µM
[11] = second compound 0.003 µM, first compound 3.16 µM
[12] = second compound 0.003 µM, first compound 10 µM
[13] = second compound 0.00949 µM, first compound 0.0316 µM
[14] = second compound 0.00949 µM, first compound 0.1 µM
[15] = second compound 0.00949 µM, first compound 0.316 µM
[16] = second compound 0.00949 µM, first compound 1 µM
[17] = second compound 0.00949 µM, first compound 3.16 µM
[18] = second compound 0.00949 µM, first compound 10 µM
[19] = second compound 0.03 µM, first compound 0.0316 µM
[20] = second compound 0.03 µM, first compound 0.1 µM
[21] = second compound 0.03 µM, first compound 0.316 µM
[22] = second compound 0.03 µM, first compound 1 µM
[23] = second compound 0.03 µM, first compound 3.16 µM
[24] = second compound 0.03 µM, first compound 10 µM
[25] = second compound 0.0949 µM, first compound 0.0316 µM
[26] = second compound 0.0949 µM, first compound 0.1 µM
[27] = second compound 0.0949 µM, first compound 0.316 µM
[28] = second compound 0.0949 µM, first compound 1 µM
[29] = second compound 0.0949 µM, first compound 3.16 µM
[30] = second compound 0.0949 µM, first compound 10 µM
[31] = second compound 0.3 µM, first compound 0.0316 µM
[32] = second compound 0.3 µM, first compound 0.1 µM
[33] = second compound 0.3 µM, first compound 0.316 µM
[34] = second compound 0.3 µM, first compound 1 µM
[35] = second compound 0.3 µM, first compound 3.16 µM
[36] = second compound 0.3 µM, first compound 10 µM
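Also: spheroids exposed to agents for seven days before viability readout.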
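For viability, T/C in this document: 100% = DMSO vehicle control viability.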

Question: For CC(C)NCC(C(=O)N1CCN(c2ncnc3c2C(C)CC3O)CC1)c1ccc(Cl)cc1 (stereo unspecified) + CCn1c(-c2cc(N3CCN(C)CC3)cnc2C(C)OC)c2c3cc(ccc31)-c1csc(n1)CC(NC(=O)C1CC1C)C(=O)N1CCCC(N1)C(=O)OCC(C)(C)C2, which IC50 (second compound 0.000949 µM) is on record?
Answer: 7560 nM

Question: And the IC50 (second compound 0.003 µM)?
Answer: 5480 nM

Question: What about the IC50 (second compound 0.00949 µM) of the same compound?
Answer: 2380 nM

Question: What about the IC50 (second compound 0.03 µM) of the same compound?
Answer: < 31.6 nM

Question: And the IC50 (second compound 0.0949 µM)?
Answer: < 31.6 nM

Question: And the IC50 (second compound 0.3 µM)?
Answer: < 31.6 nM

Question: What about the viability, T/C [1] of the same compound?
Answer: 109%

Question: What about the viability, T/C [2] of the same compound?
Answer: 106%

Question: What about the viability, T/C [3] of the same compound?
Answer: 102%

Question: What about the viability, T/C [4] of the same compound?
Answer: 106%

Question: And the viability, T/C [5]?
Answer: 78.2%

Question: What about the viability, T/C [6] of the same compound?
Answer: 41%

Question: What about the viability, T/C [7] of the same compound?
Answer: 113%

Question: And the viability, T/C [8]?
Answer: 107%

Question: What about the viability, T/C [9] of the same compound?
Answer: 103%

Question: What about the viability, T/C [10] of the same compound?
Answer: 105%

Question: And the viability, T/C [11]?
Answer: 67.5%

Question: And the viability, T/C [12]?
Answer: 30.9%

Question: What about the viability, T/C [13] of the same compound?
Answer: 96.1%

Question: And the viability, T/C [14]?
Answer: 85.1%

Question: And the viability, T/C [15]?
Answer: 81.7%

Question: And the viability, T/C [16]?
Answer: 82.1%

Question: And the viability, T/C [17]?
Answer: 39.6%

Question: What about the viability, T/C [18] of the same compound?
Answer: 21.6%

Question: What about the viability, T/C [19] of the same compound?
Answer: 50.8%

Question: What about the viability, T/C [20] of the same compound?
Answer: 40%

Question: What about the viability, T/C [21] of the same compound?
Answer: 36.5%

Question: And the viability, T/C [22]?
Answer: 47.7%

Question: And the viability, T/C [23]?
Answer: 26.1%

Question: What about the viability, T/C [24] of the same compound?
Answer: 14.5%

Question: And the viability, T/C [25]?
Answer: 43.7%

Question: And the viability, T/C [26]?
Answer: 34.9%

Question: What about the viability, T/C [27] of the same compound?
Answer: 33.3%

Question: And the viability, T/C [28]?
Answer: 25.9%

Question: What about the viability, T/C [29] of the same compound?
Answer: 22%

Question: What about the viability, T/C [30] of the same compound?
Answer: 11.1%

Question: And the viability, T/C [31]?
Answer: 52%

Question: What about the viability, T/C [32] of the same compound?
Answer: 29.9%

Question: And the viability, T/C [33]?
Answer: 32.8%

Question: What about the viability, T/C [34] of the same compound?
Answer: 26.6%

Question: What about the viability, T/C [35] of the same compound?
Answer: 19.4%

Question: And the viability, T/C [36]?
Answer: 11.1%

Question: Which results are given for CC(C)n1nc(-c2ccc3oc(N)nc3c2)c2c(N)ncnc21 + CCn1c(-c2cc(N3CCN(C)CC3)cnc2C(C)OC)c2c3cc(ccc31)-c1csc(n1)CC(NC(=O)C1CC1C)C(=O)N1CCCC(N1)C(=O)OCC(C)(C)C2?
Answer: IC50 (second compound 0.000949 µM): > 100 nM; IC50 (second compound 0.003 µM): 77.1 nM; IC50 (second compound 0.00949 µM): 42.8 nM; IC50 (second compound 0.03 µM): < 0.316 nM; IC50 (second compound 0.0949 µM): < 0.316 nM; IC50 (second compound 0.3 µM): < 0.316 nM; viability, T/C (second compound 0.000949 µM, first compound 0.000316 µM): 103%; viability, T/C (second compound 0.000949 µM, first compound 0.001 µM): 93.7%; viability, T/C (second compound 0.000949 µM, first compound 0.00316 µM): 110%; viability, T/C (second compound 0.000949 µM, first compound 0.01 µM): 116%; viability, T/C [1]: 118%; viability, T/C [2]: 63.8%; viability, T/C (second compound 0.003 µM, first compound 0.000316 µM): 114%; viability, T/C (second compound 0.003 µM, first compound 0.001 µM): 108%; viability, T/C (second compound 0.003 µM, first compound 0.00316 µM): 108%; viability, T/C (second compound 0.003 µM, first compound 0.01 µM): 103%; viability, T/C [7]: 86.2%; viability, T/C [8]: 39.2%; viability, T/C (second compound 0.00949 µM, first compound 0.000316 µM): 77.2%; viability, T/C (second compound 0.00949 µM, first compound 0.001 µM): 71.4%; viability, T/C (second compound 0.00949 µM, first compound 0.00316 µM): 64.5%; viability, T/C (second compound 0.00949 µM, first compound 0.01 µM): 78.8%; viability, T/C [13]: 54.8%; viability, T/C [14]: 36.4%; viability, T/C (second compound 0.03 µM, first compound 0.000316 µM): 41%; viability, T/C (second compound 0.03 µM, first compound 0.001 µM): 51.2%; viability, T/C (second compound 0.03 µM, first compound 0.00316 µM): 39.5%; viability, T/C (second compound 0.03 µM, first compound 0.01 µM): 37.3%; viability, T/C [19]: 39%; viability, T/C [20]: 25%; viability, T/C (second compound 0.0949 µM, first compound 0.000316 µM): 41%; viability, T/C (second compound 0.0949 µM, first compound 0.001 µM): 39.3%; viability, T/C (second compound 0.0949 µM, first compound 0.00316 µM): 31.8%; viability, T/C (second compound 0.0949 µM, first compound 0.01 µM): 30.9%; viability, T/C [25]: 30.9%; viability, T/C [26]: 21.3%; viability, T/C (second compound 0.3 µM, first compound 0.000316 µM): 35.9%; viability, T/C (second compound 0.3 µM, first compound 0.001 µM): 31.1%; viability, T/C (second compound 0.3 µM, first compound 0.00316 µM): 35.9%; viability, T/C (second compound 0.3 µM, first compound 0.01 µM): 30.1%; viability, T/C [31]: 27.8%; viability, T/C [32]: 22.8%

Question: What does the source list for CC(Nc1ccc2c(c1)OCCn1cc(N3C(=O)OCC3C(F)F)nc1-2)C(N)=O (stereo unspecified) + CCn1c(-c2cc(N3CCN(C)CC3)cnc2C(C)OC)c2c3cc(ccc31)-c1csc(n1)CC(NC(=O)C1CC1C)C(=O)N1CCCC(N1)C(=O)OCC(C)(C)C2?
Answer: IC50 (second compound 0.000949 µM): > 10000 nM; IC50 (second compound 0.003 µM): > 10000 nM; IC50 (second compound 0.00949 µM): 281 nM; IC50 (second compound 0.03 µM): < 31.6 nM; IC50 (second compound 0.0949 µM): < 31.6 nM; IC50 (second compound 0.3 µM): < 31.6 nM; viability, T/C [1]: 114%; viability, T/C [2]: 106%; viability, T/C [3]: 103%; viability, T/C [4]: 117%; viability, T/C [5]: 94.6%; viability, T/C [6]: 74.5%; viability, T/C [7]: 109%; viability, T/C [8]: 99.5%; viability, T/C [9]: 85.5%; viability, T/C [10]: 83.2%; viability, T/C [11]: 91.4%; viability, T/C [12]: 69%; viability, T/C [13]: 90.9%; viability, T/C [14]: 63.5%; viability, T/C [15]: 48.4%; viability, T/C [16]: 48.9%; viability, T/C [17]: 47.7%; viability, T/C [18]: 48%; viability, T/C [19]: 37.4%; viability, T/C [20]: 41.2%; viability, T/C [21]: 28.6%; viability, T/C [22]: 37.1%; viability, T/C [23]: 38.1%; viability, T/C [24]: 28.2%; viability, T/C [25]: 33.3%; viability, T/C [26]: 31.9%; viability, T/C [27]: 28.7%; viability, T/C [28]: 25.9%; viability, T/C [29]: 23.2%; viability, T/C [30]: 25.3%; viability, T/C [31]: 37.8%; viability, T/C [32]: 40.5%; viability, T/C [33]: 27.5%; viability, T/C [34]: 29.3%; viability, T/C [35]: 25.3%; viability, T/C [36]: 23.5%

Source: PubChem BioAssay AID2060898 (Molecular Pharmacology Branch, DTP, NCI, 2025)
